For 26 molecules, TGI and GI50 results are on record in PubChem BioAssay (NCI).

Assay in all cases: NCI anticancer screen, dose series, 48 h
Test [1] has as its system 786-0 renal.
The test system of test [2] is IGROV1 ovarian.
Test [3] has as its system A549 NSCLC.
Test [4] has as its system OVCAR-4 ovarian.
In test [5] the test system is HCT-15 colon.
Test [6] concerns SF-268 CNS.
Test [7] relates to PC-3 prostate.
The test system of test [8] is SF-295 CNS.
In test [9] the test system is MDA-MB-231 breast.
Test [10] concerns CAKI-1 renal.

“And” between values parts separate entries of the source, which are not always exact repeats. Equal entries are not always repeated.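 Tested at 5 concentrations; 48 h exposure; 96-well plates; endpoints linearly interpolated, else capped at highest concentration. GI50 = concentration required for 50% inhibition of growth. TGI: concentration producing complete growth inhibition.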

Take `c1ccc(-c2csc3c2-n2cccc2C3N2CCCC2)cc1` (stereo not drawn): the TGI is more than 100 µM in [1]; more than 100 µM in [2]; more than 100 µM in test [3]; more than 100 µM in [4]; more than 100 µM in test [5]; 78.7 µM in test [6]. Also, the TGI in test [7], in [8], in test [9] and in [10] was more than 100 µM throughout.
Consider `COc1ccccc1N1CCN(CCCCNC(=O)c2ccc([N+](=O)[O-])o2)CC1`, for which the TGI in [1] worked out at 21.4 µM; in [2] it was 28.9 µM; in test [3] it was 19.5 µM; in test [4] it was 28.9 µM; in [5] it was 17.5 µM; in test [6] it was 35.4 µM. The TGI in [7] was found to be 39.8 µM; in test [8], 25.7 µM; in test [9], 77.1 µM; in [10], 40.5 µM.
On to `c1ccc(CN2CCC(=NN3CCCCC3)CC2)cc1`, for which the TGI in [1], in [2], in test [3], in test [4], in [5] and in [6] was more than 100 µM throughout. Besides, the TGI in [7], in test [8], in [9] and in test [10] was more than 100 µM in each case.
Consider `O=[N+]([O-])c1cc(C2(N3CCCCC3)CCCCC2)sc1Br`, for which the TGI in [1] stood at 39.2 µM; in test [2], 25.1 µM; in test [3] it was 33.7 µM; in [4], 27.1 µM; in test [5] it was 17.2 µM; in [6], 28.1 µM. The TGI stood at 13.1 µM in test [7], 30.1 µM in test [8], 27.4 µM in test [9] and 15.6 µM in [10].
On to `CC(C)C[S+]1C2=C([O-])CC(C)(C)CC2=Nc2ccccc21` (stereo not drawn), for which the TGI in test [1], in test [2], in [3], in test [4], in test [5] and in [6] was more than 100 µM throughout. For the same molecule, the TGI in test [7], in test [8], in [9] and in test [10] was more than 100 µM throughout.
In the case of `COC(=O)C1OC(O[C@H]2CC[C@]3(C)[C@H]4CC=C5[C@@H]6CC(C)(C)CC[C@]6(C(=O)OC)CC[C@@]5(C)[C@]4(C)CC[C@H]3C2(C)C)C(O)C(O)C1O` (stereo partly drawn), the TGI in test [1] is 19.2 µM; in test [2] it was 37.4 µM; in test [3], 22.5 µM; in test [4] it was 30.6 µM; in [5], 27.1 µM; in [6], 39.3 µM. For the same molecule, the TGI in [7] is 28.7 µM; in [8], 28.7 µM; in [9] it was 19.2 µM; in test [10] it was 21.8 µM.
As to `CCOC(=O)Oc1cc2ccsc2c2c1c1ccccc1n2C(=O)OCC`, the TGI in test [1], in test [2], in test [3], in test [4], in [5] and in test [6] was more than 100 µM each time. For the same molecule, the TGI in test [7], in test [8], in [9] and in test [10] was more than 100 µM throughout.
As to `CC(NC(=O)Cc1ccc(OP(=O)(OCc2ccc([N+](=O)[O-])o2)N(C)CCCCCl)cc1)c1ccc(OCC2CCCCC2)c(C(N)=O)c1` (stereo not drawn), the TGI was 10.8 µM in [1]; 4.76 µM in test [2]; 4.68 µM in test [3]; 6.31 µM in test [4]; 6.44 µM in [5]; 6.27 µM in [6]. Besides, the TGI in [7] amounted to 19.6 µM; in [8], 4.84 µM; in test [9] it was 4.37 µM; in test [10], 20.7 µM.
Regarding `Cc1ccc(Nc2c3c(c(C#N)c4nc5ccccc5n24)CCCC3)cc1`, the TGI is more than 100 µM in [1]; more than 100 µM in test [2]; more than 100 µM in [3]; more than 100 µM in [4]; 82.4 µM in [5]; more than 100 µM in test [6]. In addition, the TGI in test [7] was 87.2 µM; in test [8], 44.1 µM; in test [9], 62.4 µM; in test [10] it was more than 100 µM.
`COC(=O)[C@H](CNC(=O)/C=C/c1ccc(OC(C)=O)c(OC(C)=O)c1)NC(=O)/C=C/c1ccc(OC(C)=O)c(OC(C)=O)c1`: the TGI in test [1], in test [2], in test [3], in [4], in [5] and in test [7] was more than 100 µM in each case. Moreover, the TGI in test [9] and in test [10] was more than 100 µM each time.
`COc1ccc(/C=C2/N=C(N/N=C\C(O)C(O)C(O)CO)NC2=O)cc1` (stereo not drawn): the TGI in [1], in test [2], in [3], in test [4], in test [5] and in [6] was more than 100 µM throughout. In addition, the TGI in [7], in test [8], in [9] and in test [10] was more than 100 µM throughout. Moreover, the GI50 in test [4] was 40.9 µM and > 100 µM; in [7], > 100 µM and 39.3 µM.
On to `C/C=C/CC(C(=O)OCC)(N(C)C(=O)OC(C)(C)C)S(=O)(=O)c1ccc(C)cc1` (stereo not drawn), for which the TGI in test [1], in test [2], in [3], in test [4], in [5] and in test [6] was more than 100 µM throughout. Also, the TGI in [7], in test [8], in test [9] and in test [10] was more than 100 µM throughout.
Turning to `O=C(O)c1cc2ccccc2c(Cc2c(O)c(C(=O)O)cc3ccccc23)c1O`, the TGI in test [1], in test [2], in test [3], in [4], in test [5] and in [6] was more than 100 µM throughout. Moreover, the TGI in test [7], in [8], in [9] and in test [10] was more than 100 µM throughout.
As to `COc1ccc2[nH]c3cc4c(=O)c5cc(OC)ccc5[nH]c4cc3c(=O)c2c1`, the TGI in [1], in [2], in test [3], in test [4], in test [5] and in test [6] was more than 100 µM each time. Moreover, the TGI in [7], in test [8], in test [9] and in test [10] was more than 100 µM throughout.
With `Cc1ccc(C2(O)c3ccccc3C(=O)N(C)C2(O)c2ccc(C)cc2)cc1` (stereo not drawn), the TGI is more than 100 µM in test [1]; more than 100 µM in [2]; more than 100 µM in test [3]; 50.9 µM in [4]; more than 100 µM in test [5]; 50.6 µM in [6]. Moreover, the TGI in test [7], in [8], in test [9] and in [10] was more than 100 µM each time.
As to `C/C=C1\CC(C(=O)OCC)CCCCCCC1=O` (stereo not drawn), the TGI in [1], in test [2], in [3], in [4], in test [5] and in test [6] was more than 100 µM each time. In addition, the TGI in [7], in test [8], in test [9] and in test [10] was more than 100 µM each time.
For the molecule `CC(=O)Nc1ccc(NC(=O)CC(=O)Nc2ccc(NC(C)=O)cc2)cc1`, the TGI in test [1] was more than 100 µM; in test [2] it was more than 100 µM; in test [3] it was more than 100 µM; in test [4], more than 100 µM; in [5], 61.9 µM; in test [6] it was more than 100 µM. Further, the TGI in test [7], in test [8], in [9] and in test [10] was more than 100 µM each time.
For the molecule `COc1ccc(-c2nc(-c3ccc(OC)cc3)n(-c3ccccc3)n2)cc1`, the TGI in [1], in test [2], in test [3], in test [4], in test [5] and in [6] was more than 100 µM in each case. The TGI in test [7], in test [8], in test [9] and in [10] was more than 100 µM each time.
With `CN(C(=O)[C@H](NC(=O)OCc1ccccc1)c1ccccc1)C1CCCCC1N1CCCC1` (stereo partly drawn), the TGI in test [1], in test [2], in [3], in test [4], in test [5] and in [6] was more than 100 µM in each case. The TGI in test [7], in test [8], in test [9] and in [10] was more than 100 µM in each case.
For `O=[N+]([O-])c1cc(Br)cc2cc(Cl)cnc12`, the TGI in test [1] was more than 100 µM; in [2], 24.2 µM; in test [3], more than 100 µM; in [4], more than 100 µM; in test [5], more than 100 µM; in [6] it was more than 100 µM. The TGI in test [7], in test [8], in test [9] and in test [10] was more than 100 µM throughout.
With `Cc1cc(C)cc(Nc2nnc3n2S(=O)(=O)c2cc(C)c(Cl)cc2S3)c1`, the TGI is more than 100 µM in test [1]; 80.6 µM in test [2]; 45.1 µM in test [3]; more than 100 µM in test [4]; 28.3 µM in [5]; 31.1 µM in [6]. Besides, the TGI is 10.1 µM in [7], more than 100 µM in test [8], 33.2 µM in test [9] and more than 100 µM in test [10].
Consider `Cc1cccc2c(N)c3cccc(C(=O)NCC[N+](C)(C)Cc4ccc([N+](=O)[O-])n4C)c3nc12`, for which the TGI in test [1] is more than 63.9 µM; in test [2], 58.4 µM; in test [3] it was more than 52.2 µM; in test [4] it was more than 74.7 µM; in [5], more than 78 µM; in [6], 61.9 µM. The TGI in test [7] was more than 75.2 µM; in test [8] it was more than 89.3 µM; in test [9], more than 72.6 µM; in [10] it was more than 51.2 µM.
In the case of `Cc1ccsc1/C=N/NC1=NCCN1`, the TGI in test [1], in test [2], in test [3], in test [4], in test [5] and in test [6] was more than 100 µM in each case. Besides, the TGI in test [7], in test [8], in test [9] and in test [10] was more than 100 µM in each case.
On to `O=C(O)c1cc(N=Nc2ccc([N+](=O)[O-])cc2)ccc1O`, for which the TGI in test [1] was more than 100 µM; in test [2] it was more than 100 µM; in [3] it was more than 100 µM; in [4] it was 80.4 µM; in [5] it was more than 100 µM; in test [6] it was more than 100 µM. Moreover, the TGI in test [7] is more than 100 µM; in [8], 83.7 µM; in test [9], more than 100 µM; in [10] it was more than 100 µM.
Take `COc1cc(C2CC(C)(N3CCOCC3)Oc3cc4c(cc32)OCO4)cc(OC)c1OC` (stereo not drawn): the TGI is 11.5 µM in test [1]; more than 35.9 µM in test [2]; more than 100 µM in [3]; 8.65 µM in test [4]; more than 100 µM in [5]; more than 100 µM in test [6]. The TGI in test [7] is more than 100 µM; in test [9] it was more than 100 µM; in [10], 72.1 µM.
As for `O=[N+]([O-])c1ccc(CSc2nn(Cc3ccc([N+](=O)[O-])cc3)cc3ncnc2-3)cc1`, the TGI was more than 100 µM in test [1]; 52.1 µM in [2]; more than 100 µM in [3]; more than 100 µM in [4]; more than 100 µM in [5]; more than 100 µM in [7]. Further, the TGI in [8], in test [9] and in [10] was more than 100 µM throughout.
